Data as given in the OligoGym collection.
Bases are written 5' to 3'; sugars and linkages follow in the same order, as letters with counts (s phosphorothioate, o phosphodiester; PS: all linkages phosphorothioate). The collection does not say whether C is 5-methylated. l = locked nucleic acid (LNA); d = 2'-deoxy (DNA)

biological target: Tau; test: rat primary cortical neurons, FLIPR, 25 uM ASO

“TGGATGTTGCCTAATGAGCC (sugars l3 d14 l3, PS)” and TTGGAGCCTACATAGA (sugars l3 d10 l3, PS) are the same in calcium oscillation score: 0 % of control for the first, 0 % of control for the second.

First: ACCACCTCATTAAGATC (sugars l4 d11 l2, PS)
Second: CTTTATTTCCAAATTCACT (sugars l5 d9 l5, PS)
The calcium oscillation score of the first is lower: 58.3 % of control for the first, 127 % of control for the second.

Going from “ATTTTACTACTCTCTTTTC (sugars l4 d11 l4, PS)” to “ACAAACATCTAAACACCTCA (sugars l2 d14 l4, PS)”, the calcium oscillation score rises from 70.6 % of control to 72.6 % of control.

Compared with “CATCACCAAGTCCCAAA (sugars l2 d11 l4, PS)”, “CCATTTTCACTGTTCACA (sugars l2 d14 l2, PS)” is higher in calcium oscillation score: 81 % of control for the first, 86.3 % of control for the second.

Compared with GCCACCTCCTGGTTTA (sugars l3 d10 l3, PS), GGCCTGATCACAAACC (sugars l3 d10 l3, PS) is higher in calcium oscillation score: 86.1 % of control for the first, 132 % of control for the second.

Compared with TCGTCAGCTAGCGTGG (sugars l3 d10 l3, PS), GGCGACTTGTACAC (sugars l3 d8 l3, PS) is higher in calcium oscillation score: 55.2 % of control for the first, 117 % of control for the second.

Compared with “CTTTATTTCCAAATTCAC (sugars l3 d11 l1 d1 l2, PS)”, CGCGGAAGGTCAGCTT (sugars l3 d10 l3, PS) is lower in calcium oscillation score: 132 % of control for the first, 33.3 % of control for the second.

Going from “TCCAAAACATTCTCACCAAA (sugars l4 d14 l2, PS)” to “GGTCAACTGGTTTGTAGACT (sugars l3 d14 l3, PS)”, the calcium oscillation score falls from 85.7 % of control to 6.9 % of control.

Going from GATCTTAGGCTGGCC (sugars l3 d9 l3, PS) to “CCAGCTAGTGGTGCCACCTG (sugars l3 d14 l3, PS)”, the calcium oscillation score falls from 8.13 % of control to 1.84 % of control.

First: CTCTGGTCAAGGCTTT (sugars l3 d10 l3, PS)
Second: TGGGTGATATTGTCCA (sugars l3 d10 l3, PS)
The calcium oscillation score of the first is lower: 0 % of control for the first, 92.6 % of control for the second.

First: AAATATCCTTACCATCCTAT (sugars l2 d15 l3, PS)
Second: TCAACTCTTAGCATCCAC (sugars l2 d13 l3, PS)
The calcium oscillation score of the first is higher: 78.8 % of control for the first, 50 % of control for the second.

Going from GGGAGGCAGACACCTC (sugars l3 d10 l3, PS) to “CCAGCGTGATCTTCCATCAC (sugars ldlllddddddddddlldll, PS)”, the calcium oscillation score rises from 42.8 % of control to 124 % of control.

Going from AGAAATAAGTGGTAGT (sugars l2 d12 l2, PS) to “ATTTATTCTTTTTATTATTT (sugars l4 d12 l4, PS)”, the calcium oscillation score falls from 86.9 % of control to 59.6 % of control.

Going from “ATTTCCAAATTCACTTTTAC (sugars lldlldddddddddllddll, PS)” to AGAAATAAGTGGTAGT (sugars l3 d11 l2, PS), the calcium oscillation score falls from 120 % of control to 85.7 % of control.

Compared with TAGCAGAGGAACGTGT (sugars l3 d10 l3, PS), “TTATTTCCAAATTCACTTTT (sugars l4 d11 l5, PS)” is higher in calcium oscillation score: 40.7 % of control for the first, 124 % of control for the second.

Going from “TTCCTTTCAATGACCAA (sugars l3 d10 l4, PS)” to GCTTCAGTCCTAATC (sugars l3 d9 l3, PS), the calcium oscillation score falls from 56.6 % of control to 11.5 % of control.

Going from “TCATAAATGACTATACTTAT (sugars l3 d14 l3, PS)” to GCTCCAACCACACCTT (sugars l2 d11 l3, PS), the calcium oscillation score rises from 80.6 % of control to 85 % of control.

First: TTATTTCCAAATTCACTTTT (sugars lldldlddddddddddllll, PS)
Second: CCATTTTCCATATAATTTT (sugars l3 d12 l4, PS)
The calcium oscillation score of the first is higher: 88.8 % of control for the first, 79.3 % of control for the second.

First: GTTTGTAGACTATTT (sugars l3 d9 l3, PS)
Second: TCTCAAGTCTTATTCTC (sugars l3 d11 l3, PS)
The calcium oscillation score of the first is lower: 0 % of control for the first, 38.6 % of control for the second.

First: TATTTCCAAATTCACTTTTA (sugars llldldddddddddlddlll, PS)
Second: AATAAGAAAGGAACGC (sugars l5 d6 l5, PS)
The calcium oscillation score of the first is higher: 125 % of control for the first, 113 % of control for the second.

First: AACTGATTCCATCACCA (sugars l3 d11 l3, PS)
Second: ACAGCCATTTTCCATAT (sugars l3 d11 l3, PS)
The calcium oscillation score of the first is higher: 69.7 % of control for the first, 59.3 % of control for the second.

Going from “TCTTGTTCTAACCCCACA (sugars l2 d14 l2, PS)” to “AACAGGAGAGCCATTTCCCA (sugars l3 d14 l3, PS)”, the calcium oscillation score falls from 68.1 % of control to 57.1 % of control.

First: ATTTCCAAATTCACTTTTAC (sugars llddlldddddddddldlll, PS)
Second: TGGTTTATGATGGATGTTGC (sugars l3 d14 l3, PS)
The calcium oscillation score of the first is higher: 112 % of control for the first, 0 % of control for the second.

Compared with “TTCATCACCAAGTCCCA (sugars l3 d12 l2, PS)”, “TGCAATTTCCTTTCCAT (sugars l3 d11 l3, PS)” is higher in calcium oscillation score: 66.8 % of control for the first, 67.6 % of control for the second.

First: GTCAGCTAGCGTGGCG (sugars l3 d10 l3, PS)
Second: CATGACATTTTAAACCC (sugars l3 d10 l4, PS)
The calcium oscillation score of the first is lower: 27.6 % of control for the first, 69.2 % of control for the second.

Compared with AGAGGCACAAGTCCT (sugars l3 d9 l3, PS), TCCTAATCCTGTGCTT (sugars l3 d10 l3, PS) is lower in calcium oscillation score: 74.3 % of control for the first, 23 % of control for the second.

First: ACCCCATTTTTGACATA (sugars l3 d12 l2, PS)
Second: CTTTATTTCCAAATTCACTT (sugars l4 d13 l3, PS)
The calcium oscillation score of the first is lower: 73.1 % of control for the first, 121 % of control for the second.

First: TTTACAAAGTCCACTTT (sugars l4 d9 l4, PS)
Second: TGGCGACTTGTACACG (sugars l3 d10 l3, PS)
The calcium oscillation score of the first is lower: 53 % of control for the first, 70.6 % of control for the second.

Going from CCTTAATTTCACCCTC (sugars l3 d10 l3, PS) to “CTTACAACCAACACTGA (sugars l3 d10 l4, PS)”, the calcium oscillation score falls from 132 % of control to 49.7 % of control.

Compared with “CTTTAATTTAATCACTCA (sugars l4 d10 l4, PS)”, CATCACTTCGAACTCC (sugars l3 d10 l3, PS) is higher in calcium oscillation score: 76.6 % of control for the first, ≥ 200 % of control for the second.

Compared with “TTAACCAGCTAGTGGTGCCA (sugars l3 d14 l3, PS)”, “TTTAGTTTTCCCACCCAA (sugars l2 d13 l3, PS)” is higher in calcium oscillation score: 0 % of control for the first, 69.4 % of control for the second.

Going from “ACTTTATTTCCAAATTCACTTTTAC (sugars lldlddddddddddddddddldlll, PS)” to “GCTTAATAAACACCCTT (sugars l2 d11 l4, PS)”, the calcium oscillation score rises from 35.4 % of control to 68.5 % of control.

Going from “TCCCCCAAAATATCTCA (sugars l2 d12 l3, PS)” to “TATTTCCAAATTCACTTTTA (sugars l5 d10 l5, PS)”, the calcium oscillation score rises from 87.1 % of control to ≥ 200 % of control.

First: CAACATTTGCACTCTCT (sugars l2 d11 l4, PS)
Second: AATATTACACCATCCAA (sugars l4 d9 l4, PS)
The calcium oscillation score of the first is lower: 53 % of control for the first, 95.7 % of control for the second.

Compared with “ATTTATTCCATTGCTCT (sugars l2 d11 l4, PS)”, CCAAGAGGCACAAGTC (sugars l3 d10 l3, PS) is higher in calcium oscillation score: 42.4 % of control for the first, 74.3 % of control for the second.

First: CTCGTCAGCTAGCGTG (sugars l3 d10 l3, PS)
Second: CTCCAATTTTAAACTTA (sugars l4 d9 l4, PS)
The calcium oscillation score of the first is lower: 27.1 % of control for the first, 66.5 % of control for the second.

Going from CATCGCTTCCAGTC (sugars l3 d8 l3, PS) to TTCTTGTGATGCAGGA (sugars l3 d10 l3, PS), the calcium oscillation score falls from 116 % of control to 61.3 % of control.

First: CCACACTTGGAGGTCACCTT (sugars l3 d14 l3, PS)
Second: CTCGCGGAAGGTCAGCTTGT (sugars l3 d14 l3, PS)
The calcium oscillation score of the first is higher: 4.52 % of control for the first, 2.91 % of control for the second.

Going from CACAAGTCCTTACAAA (sugars l3 d10 l3, PS) to “CATTATCATCCATTCTG (sugars l3 d10 l4, PS)”, the calcium oscillation score falls from 194 % of control to 47.3 % of control.

Going from “GCAGACACCTCGTCAGCTAG (sugars l3 d14 l3, PS)” to “ATTCATTTTACTTTACTTTT (sugars l4 d12 l4, PS)”, the calcium oscillation score rises from 59.6 % of control to 88.6 % of control.

Going from “CTTTATTTCCAAATTCACTT (sugars l2 d1 l2 d12 l3, PS)” to “CTTTATTTCCAAATTCACTT (sugars l1 d17 l2, PS)”, the calcium oscillation score rises from 112 % of control to 179 % of control.

Compared with CCTTTGAAAGTCCTTT (sugars l2 d11 l3, PS), “GGTTTGTAGACTATTTGCAC (sugars l3 d14 l3, PS)” is lower in calcium oscillation score: 100 % of control for the first, 0 % of control for the second.

Compared with TCCTCCATTGTAACTA (sugars l4 d10 l2, PS), “CATGCAGTTTATTCCTGGCA (sugars l3 d14 l3, PS)” is lower in calcium oscillation score: 85.3 % of control for the first, 6.04 % of control for the second.

Going from “CACCCAAACTCCAAGTTC (sugars l4 d12 l2, PS)” to TCCATTAGTCTCTTCA (sugars l3 d11 l2, PS), the calcium oscillation score rises from 53.9 % of control to 65.1 % of control.

Going from “CACCCACTTTCCTAATTCCC (sugars l1 d17 l2, PS)” to CCCTGAAACCATTAAC (sugars l3 d9 l4, PS), the calcium oscillation score rises from 55.1 % of control to 70.2 % of control.

Going from “TCAGCTTGTGGGTTTCAATC (sugars l3 d14 l3, PS)” to “ACTCTTTGAACACCCCA (sugars l2 d12 l3, PS)”, the calcium oscillation score rises from 13.3 % of control to 88.9 % of control.

Going from “ACTTTATTTCCAAATTCACTTTTAC (sugars l4 d16 l2 d1 l2, PS)” to GTTTTTTAACTCCCAAC (sugars l4 d9 l4, PS), the calcium oscillation score rises from 29.5 % of control to 74.1 % of control.

First: TTCCTGGACCACCTTA (sugars l3 d10 l3, PS)
Second: GCACCAGGAACCTTCCAGAA (sugars l3 d14 l3, PS)
The calcium oscillation score of the first is higher: 59.3 % of control for the first, 12.8 % of control for the second.

Going from GTTAGCCCTAAAGT (sugars l3 d8 l3, PS) to “CAAACCAACTCAACATTACC (sugars l4 d14 l2, PS)”, the calcium oscillation score rises from 61 % of control to 94.7 % of control.

Going from “ATTTCCAAATTCACTTTTAC (sugars lldlldddddddddlddlll, PS)” to “CCTTGATCATATTTGTGGCA (sugars l3 d14 l3, PS)”, the calcium oscillation score falls from 35.4 % of control to 28.6 % of control.

Compared with “CAAACAATCCATTTATATT (sugars l4 d11 l4, PS)”, TCAGCTAGCGTGGCGA (sugars l3 d10 l3, PS) is higher in calcium oscillation score: 69.3 % of control for the first, 75.9 % of control for the second.

Going from ACCTCCTGGTTTAT (sugars l3 d8 l3, PS) to “GGCGACTTGTACACGATCTC (sugars l3 d14 l3, PS)”, the calcium oscillation score falls from 89.7 % of control to 46.6 % of control.

First: CACTTTCCTAATTCCCAAAT (sugars l2 d16 l2, PS)
Second: CTACTATTTACTATGC (sugars l3 d9 l4, PS)
The calcium oscillation score of the first is lower: 62.1 % of control for the first, 66.8 % of control for the second.

For GCCTGATCACAAACCC (sugars l3 d10 l3, PS), the calcium oscillation score was 144 % of control.
